Series [1] deals with T1, Ephrin type-A receptor 1 (Homo sapiens, UniProt P21709).
T1 sequence (P21709 whole entry): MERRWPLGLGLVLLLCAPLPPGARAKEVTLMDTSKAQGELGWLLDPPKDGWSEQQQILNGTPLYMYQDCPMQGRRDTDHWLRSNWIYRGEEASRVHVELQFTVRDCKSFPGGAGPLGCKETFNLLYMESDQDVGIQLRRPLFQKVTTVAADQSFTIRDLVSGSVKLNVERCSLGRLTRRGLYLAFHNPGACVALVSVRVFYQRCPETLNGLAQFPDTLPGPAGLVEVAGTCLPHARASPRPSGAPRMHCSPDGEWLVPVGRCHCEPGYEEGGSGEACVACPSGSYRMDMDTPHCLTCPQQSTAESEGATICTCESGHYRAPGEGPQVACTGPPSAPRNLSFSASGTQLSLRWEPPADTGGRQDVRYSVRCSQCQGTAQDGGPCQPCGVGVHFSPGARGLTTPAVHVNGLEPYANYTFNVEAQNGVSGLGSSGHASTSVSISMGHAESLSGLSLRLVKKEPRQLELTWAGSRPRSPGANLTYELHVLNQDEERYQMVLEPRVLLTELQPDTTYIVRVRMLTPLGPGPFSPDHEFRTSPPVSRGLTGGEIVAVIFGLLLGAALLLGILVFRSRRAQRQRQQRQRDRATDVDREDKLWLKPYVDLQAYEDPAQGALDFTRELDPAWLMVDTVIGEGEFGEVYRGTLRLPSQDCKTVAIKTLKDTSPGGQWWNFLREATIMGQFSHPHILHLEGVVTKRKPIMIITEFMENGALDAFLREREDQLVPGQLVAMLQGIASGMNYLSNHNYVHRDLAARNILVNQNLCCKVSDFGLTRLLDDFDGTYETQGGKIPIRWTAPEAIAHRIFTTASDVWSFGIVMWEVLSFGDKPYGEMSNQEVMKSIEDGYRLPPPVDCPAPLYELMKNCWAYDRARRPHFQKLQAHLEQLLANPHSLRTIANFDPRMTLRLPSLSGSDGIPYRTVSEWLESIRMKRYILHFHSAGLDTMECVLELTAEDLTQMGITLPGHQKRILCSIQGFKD
Put plainly: Displacement of biotinylated ephrin-A1-Fc from human EphA1 Fc preincubated for 1 hr followed by ephrin-A1-FC addition and measured after 4 hrs by ELISA. (An ELISA detects its analyte on a solid surface through an enzyme-linked reagent.)

Series [2] concerns the target Ephrin type-A receptor 5 (Rattus norvegicus, UniProt P54757). Put plainly: Displacement of biotinylated ephrin-A1-Fc from rat EphA5 Fc preincubated for 1 hr followed by ephrin-A1-FC addition and measured after 4 hrs by ELISA.
The subject of series [3] is Chorioallantoic membrane. The experiment in a line: Antiangiogenic activity in Leghorn chicken fertilized egg chorioallantoic membrane assessed as reduction in VEGF stimulated neovascularization at 10 uM measured after 3 days by CAM assay. The format is functional, tissue-based. To be noted: Gallus gallus, time 3.0 day.
Series [4] deals with Ephrin type-A receptor 4 (Mus musculus, UniProt Q03137). The experiment in a line: Displacement of biotinylated ephrin-A1-Fc from mouse EphA4 Fc preincubated for 1 hr followed by ephrin-A1-FC addition and measured after 4 hrs by ELISA.
Chain of Ephrin type-A receptor 4 (Q03137 whole entry): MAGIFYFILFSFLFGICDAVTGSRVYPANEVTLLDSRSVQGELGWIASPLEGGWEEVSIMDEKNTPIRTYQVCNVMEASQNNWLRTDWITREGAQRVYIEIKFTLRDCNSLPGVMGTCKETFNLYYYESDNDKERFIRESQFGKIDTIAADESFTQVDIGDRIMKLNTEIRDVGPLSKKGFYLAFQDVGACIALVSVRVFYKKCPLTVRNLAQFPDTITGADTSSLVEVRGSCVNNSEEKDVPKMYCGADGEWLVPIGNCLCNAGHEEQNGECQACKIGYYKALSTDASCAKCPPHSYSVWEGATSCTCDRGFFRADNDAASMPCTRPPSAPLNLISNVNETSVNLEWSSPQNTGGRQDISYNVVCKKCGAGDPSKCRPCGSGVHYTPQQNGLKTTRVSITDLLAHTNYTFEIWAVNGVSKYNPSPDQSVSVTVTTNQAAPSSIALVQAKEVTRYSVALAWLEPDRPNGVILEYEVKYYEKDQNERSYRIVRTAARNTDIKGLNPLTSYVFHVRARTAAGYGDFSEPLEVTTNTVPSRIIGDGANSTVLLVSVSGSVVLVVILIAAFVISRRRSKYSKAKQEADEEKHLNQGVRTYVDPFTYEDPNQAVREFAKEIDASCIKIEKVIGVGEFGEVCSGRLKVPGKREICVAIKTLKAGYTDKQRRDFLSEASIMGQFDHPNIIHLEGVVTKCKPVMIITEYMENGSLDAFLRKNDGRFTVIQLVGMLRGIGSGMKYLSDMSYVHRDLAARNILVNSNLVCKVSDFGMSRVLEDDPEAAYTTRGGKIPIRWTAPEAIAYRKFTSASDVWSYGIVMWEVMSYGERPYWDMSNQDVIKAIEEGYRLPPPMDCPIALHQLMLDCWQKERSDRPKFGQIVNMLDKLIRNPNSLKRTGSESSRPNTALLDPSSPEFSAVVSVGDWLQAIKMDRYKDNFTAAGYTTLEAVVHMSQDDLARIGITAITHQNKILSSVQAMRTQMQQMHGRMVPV
Series [5] concerns the target T2, Ephrin type-B receptor 2 (Mus musculus, UniProt P54763).
T2 sequence (P54763 whole entry): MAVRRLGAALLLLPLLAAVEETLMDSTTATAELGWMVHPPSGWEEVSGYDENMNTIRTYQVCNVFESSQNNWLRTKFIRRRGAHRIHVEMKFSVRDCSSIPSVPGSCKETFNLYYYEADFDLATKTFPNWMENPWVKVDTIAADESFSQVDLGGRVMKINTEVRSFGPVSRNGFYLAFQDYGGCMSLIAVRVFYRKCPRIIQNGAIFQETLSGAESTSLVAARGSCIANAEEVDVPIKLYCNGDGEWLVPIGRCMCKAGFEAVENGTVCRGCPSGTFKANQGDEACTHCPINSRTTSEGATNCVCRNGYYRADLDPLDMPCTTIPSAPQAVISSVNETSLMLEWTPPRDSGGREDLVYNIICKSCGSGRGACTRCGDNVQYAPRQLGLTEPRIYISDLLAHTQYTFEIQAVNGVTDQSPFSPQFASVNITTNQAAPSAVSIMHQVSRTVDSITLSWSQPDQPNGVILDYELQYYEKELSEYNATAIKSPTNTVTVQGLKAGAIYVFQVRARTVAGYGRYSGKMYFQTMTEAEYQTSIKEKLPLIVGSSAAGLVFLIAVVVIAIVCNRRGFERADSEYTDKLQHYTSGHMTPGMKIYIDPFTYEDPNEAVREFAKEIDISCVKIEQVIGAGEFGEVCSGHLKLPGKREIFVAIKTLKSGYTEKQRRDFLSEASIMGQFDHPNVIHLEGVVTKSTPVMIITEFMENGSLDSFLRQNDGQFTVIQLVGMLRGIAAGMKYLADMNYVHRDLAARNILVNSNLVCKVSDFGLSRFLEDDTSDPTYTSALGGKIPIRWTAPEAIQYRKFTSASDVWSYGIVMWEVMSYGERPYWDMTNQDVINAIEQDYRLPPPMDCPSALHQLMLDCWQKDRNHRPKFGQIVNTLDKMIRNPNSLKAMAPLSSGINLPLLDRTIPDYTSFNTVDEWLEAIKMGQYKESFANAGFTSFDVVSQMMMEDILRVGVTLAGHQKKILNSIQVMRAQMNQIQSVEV
The experiment in a line: Displacement of biotinylated ephrin-B1-Fc from mouse EphB2 Fc preincubated for 1 hr followed by ephrin-B1-FC addition and measured after 4 hrs by ELISA.

The subject of series [6] is HUVEC. Put plainly: Antiangiogenic activity in HUVEC assessed as reduction in number of polygons formation after 16 hrs by matrigel-based microscopic analysis. To be noted: Homo sapiens.
In series [7] the test system is PC-3. Put plainly: Cytotoxicity against human PC3 cells after 2 hrs by LDH assay. The format is cell-based. As to conditions: pc-3, 2 h.
The target of series [8] is Ephrin type-A receptor 2 (Mus musculus, UniProt Q03145). The experiment in a line: Displacement of biotinylated ephrin-A1-Fc from recombinant mouse c-terminal His6-tagged EphA2 Fc (Ala22 to Ala535 residues) preincubated for 1 hr followed by ephrin-A1-FC addition and measured after 4 hrs by ELISA.
Chain of Ephrin type-A receptor 2 (Q03145 whole entry): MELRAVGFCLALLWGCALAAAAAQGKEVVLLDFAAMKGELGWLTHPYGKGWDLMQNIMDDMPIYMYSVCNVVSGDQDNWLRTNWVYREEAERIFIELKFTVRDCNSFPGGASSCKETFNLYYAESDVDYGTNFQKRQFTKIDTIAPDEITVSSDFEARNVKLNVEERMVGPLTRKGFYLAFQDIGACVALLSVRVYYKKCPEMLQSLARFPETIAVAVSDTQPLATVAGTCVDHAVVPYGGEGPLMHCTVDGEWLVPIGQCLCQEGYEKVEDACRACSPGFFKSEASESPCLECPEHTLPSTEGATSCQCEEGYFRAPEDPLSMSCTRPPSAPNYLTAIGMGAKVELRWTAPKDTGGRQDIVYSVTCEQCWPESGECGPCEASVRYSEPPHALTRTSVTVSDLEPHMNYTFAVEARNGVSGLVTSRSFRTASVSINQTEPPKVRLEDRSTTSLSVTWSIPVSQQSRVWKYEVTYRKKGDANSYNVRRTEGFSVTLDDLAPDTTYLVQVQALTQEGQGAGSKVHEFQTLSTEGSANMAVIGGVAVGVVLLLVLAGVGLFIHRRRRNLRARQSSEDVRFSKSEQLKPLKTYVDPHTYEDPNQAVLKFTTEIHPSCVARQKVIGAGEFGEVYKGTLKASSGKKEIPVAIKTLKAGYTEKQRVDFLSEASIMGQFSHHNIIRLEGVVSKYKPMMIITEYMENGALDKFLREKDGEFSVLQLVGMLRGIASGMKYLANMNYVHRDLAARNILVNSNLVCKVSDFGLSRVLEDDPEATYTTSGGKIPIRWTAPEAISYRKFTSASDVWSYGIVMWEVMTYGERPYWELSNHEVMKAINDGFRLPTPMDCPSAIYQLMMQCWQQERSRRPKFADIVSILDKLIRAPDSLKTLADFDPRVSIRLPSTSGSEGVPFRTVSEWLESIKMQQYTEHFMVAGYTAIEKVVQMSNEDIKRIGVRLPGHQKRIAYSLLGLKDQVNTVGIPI

Molecules are shown by their SMILES. pIC50: −log10 of the molar value. Activity calls are given as the source filed them. The calls are words filed in the database; no cut-off is given here. Some results are limits rather than exact numbers.

Chain of Ephrin type-A receptor 5 (P54757 whole entry): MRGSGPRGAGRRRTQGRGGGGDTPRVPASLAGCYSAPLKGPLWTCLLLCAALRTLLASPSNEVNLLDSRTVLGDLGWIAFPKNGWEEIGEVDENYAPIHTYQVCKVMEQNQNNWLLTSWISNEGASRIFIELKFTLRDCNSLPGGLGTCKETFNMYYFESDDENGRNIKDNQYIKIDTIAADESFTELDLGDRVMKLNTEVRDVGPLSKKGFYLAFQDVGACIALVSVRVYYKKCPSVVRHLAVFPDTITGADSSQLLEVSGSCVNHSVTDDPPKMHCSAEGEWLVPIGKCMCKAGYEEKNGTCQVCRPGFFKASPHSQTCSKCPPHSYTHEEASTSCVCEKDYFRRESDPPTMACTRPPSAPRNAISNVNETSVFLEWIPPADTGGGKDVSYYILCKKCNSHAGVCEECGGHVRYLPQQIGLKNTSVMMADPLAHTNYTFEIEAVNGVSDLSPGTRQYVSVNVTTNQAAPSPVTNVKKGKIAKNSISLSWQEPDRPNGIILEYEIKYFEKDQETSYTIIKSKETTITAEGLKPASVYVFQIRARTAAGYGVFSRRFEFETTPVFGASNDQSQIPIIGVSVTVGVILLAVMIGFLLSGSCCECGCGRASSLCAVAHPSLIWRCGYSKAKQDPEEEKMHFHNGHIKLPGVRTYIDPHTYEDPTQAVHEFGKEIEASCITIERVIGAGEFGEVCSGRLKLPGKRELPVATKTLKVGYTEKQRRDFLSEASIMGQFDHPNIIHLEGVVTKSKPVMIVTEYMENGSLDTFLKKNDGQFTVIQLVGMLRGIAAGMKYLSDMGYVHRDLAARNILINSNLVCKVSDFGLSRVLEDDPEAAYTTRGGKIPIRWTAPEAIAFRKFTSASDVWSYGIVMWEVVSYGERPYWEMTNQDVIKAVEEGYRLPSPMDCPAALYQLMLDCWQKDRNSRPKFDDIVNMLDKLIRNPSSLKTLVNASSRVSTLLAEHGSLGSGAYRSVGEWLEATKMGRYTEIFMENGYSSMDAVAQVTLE

Broadly, the pIC50 is the IC50 on a negative log10 scale, so that one unit is a factor of ten. In the case of `CCNC(=O)O[C@@H]1CC[C@@]2(C)[C@H](CC[C@@H]3[C@@H]2CC[C@]2(C)[C@@H]([C@H](C)CCC(=O)N[C@H](CC(=O)O)Cc4c[nH]c5ccccc45)CC[C@@H]32)C1`, the pIC50 is less than 4.52 in series [1]; 5.36 in series [2]; 5.19 in series [4]; 4.85 in series [5]; 5.52 in series [6]; 6.02 in series [8]. Moreover, the result in series [3] was Active. Also, in series [7], the Activity result is reported as “Non-Toxic”.

(Values after ChEMBL document CHEMBL4680187, “Optimization of EphA2 antagonists based on a lithocholic acid core led to the identification of UniPR505, a new 3α-carbamoyloxy derivative with antiangiogenetic properties” (Eur J Med Chem, 2020).)
